From PMC3435281 (PLoS ONE, 2012)

What was measured:
[1] = target: AHR^b isoform (C57BL/6J hepatic cytosol) (Mus musculus, UniProt P30561); conditions: read-out: IC50, competitive binding; C57BL/6J cytosol, 1 nM radioligand 125IBr2N3DpD
murine AHR^d = target: T1, murine AHR^d (Mus musculus, UniProt P30561, A375V); assay: EROD activity in AHR^d-15 cells (rat hepatoma BP8 stably transfected with AHR^d)
T1 sequence (P30561 10-848 A375V): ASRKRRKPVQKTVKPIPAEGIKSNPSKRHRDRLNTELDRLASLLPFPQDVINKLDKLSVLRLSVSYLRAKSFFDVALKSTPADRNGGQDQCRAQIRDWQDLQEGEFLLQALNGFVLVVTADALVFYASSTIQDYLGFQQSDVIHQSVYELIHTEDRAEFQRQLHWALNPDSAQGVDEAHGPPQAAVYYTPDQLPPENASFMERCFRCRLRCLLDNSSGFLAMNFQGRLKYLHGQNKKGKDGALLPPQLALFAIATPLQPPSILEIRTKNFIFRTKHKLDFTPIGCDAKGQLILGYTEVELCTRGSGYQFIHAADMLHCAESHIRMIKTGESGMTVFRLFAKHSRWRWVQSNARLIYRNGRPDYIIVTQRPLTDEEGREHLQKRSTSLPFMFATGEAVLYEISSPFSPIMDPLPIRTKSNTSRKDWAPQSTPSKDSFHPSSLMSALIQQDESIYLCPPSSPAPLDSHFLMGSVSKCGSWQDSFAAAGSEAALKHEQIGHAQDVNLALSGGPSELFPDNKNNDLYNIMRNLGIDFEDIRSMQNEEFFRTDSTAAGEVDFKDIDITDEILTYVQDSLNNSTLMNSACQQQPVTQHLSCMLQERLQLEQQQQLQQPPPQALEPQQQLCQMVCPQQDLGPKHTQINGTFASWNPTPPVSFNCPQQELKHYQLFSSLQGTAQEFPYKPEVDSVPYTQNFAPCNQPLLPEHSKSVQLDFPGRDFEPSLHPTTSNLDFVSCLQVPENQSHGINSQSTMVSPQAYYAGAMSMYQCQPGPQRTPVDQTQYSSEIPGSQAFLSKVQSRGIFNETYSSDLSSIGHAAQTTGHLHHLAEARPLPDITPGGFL
From the text: The 100 “hit compounds” from the primary screen were subsequently screened for their capacity to activate the low-affinity murine AHR^d receptor isoform using the activity of the endogenous Cyp1a1 gene as a readout. To this end, we established a hepatoma cell line that expresses the AHR^d receptor isoform derived from the DBA/2J mouse. An AHR^d-expressing cell line was generated by stably transfecting the AHR^d cDNA into the rat hepatoma AHR-deficient cell line, BP8 [15]. After stable selection with G418, a subclone (AHR^d-15) was analyzed for receptor expression and function. […] To confirm that the AHR^d-15 clone expressed a functional low affinity AHR^d isoform, we examined the receptor-mediated response to the prototype agonists, TCDD and β-naphthoflavone (BNF).
To test the ability of the 100 AHR inducers to activate the AHR^d-15 cells, they were treated with each of the compounds at the dose of 1 µM, for 36 hours in 96-well plates.
(§1) Figure 3 In Vitro dose response curves. A. Rat hepatoma cell lines bearing the murine AHR^d (AHR^d-15) or the rat AHR^b (5L) were incubated with increasing doses of TCDD in 96-well plates. After 40 hours, EROD activity was performed from whole cell lysate. (n = 3). […] (n = 3). C. Same assay as in A, with increasing doses of BNF. (n = 2). […] Following 48 hours, hepatic microsomal proteins were isolated and used for the assessment of EROD activity. Animals were treated in groups of 4. Error bars: S.D.
The open reading frame of the AHR^d gene (PL2047) was amplified by PCR using oligos OL5127 (5′-[…]-3′) and OL5128 (5′-[…]-3′). The product was ligated into the pTARGET™ mammalian expression vector (Promega, Madison, WI). The resulting plasmid was transfected into the AHR-deficient cell line, BP8 [15], using Effectene transfection reagent (Qiagen Inc., Valencia, CA). Stable integrants were selected with 6 mg/ml of G418 for 2 weeks, beginning at 48-hours post-transfection. Clones derived from single cells were screened for their response to nanomolar doses of dioxin or micromolar doses of BNF, as measured by ethoxyresorufin O-deethylase (EROD) activity. […] The validated cell line used in these studies was designated line AHR^d-15.
(§2) High-throughput analysis of EROD activity was assayed by adapting a protocol that was described elsewhere, [63]. Briefly, cells were seeded into 96-well plates at ∼ 60% density and treated with the test compounds for 36 hours. The cells were washed with PBS and lysed with 30 µL water and a cycle of freeze-thaw. To each well, 150 µL of 50 mM Hepes buffer containing 26.7 µM dicumarol and 13.3 µM ethoxyresorufin were added. The samples were incubated at 30°C for 20 minutes, and 50 µL of 0.5 mM β-NADPH were added to initiate the reaction. Fluorescence of the resorufin product was detected using the 544 nm excitation and 590 nm emission wavelength filter set.

rat AHR^b (5L) = target: T2, rat AHR^b (5L) (Rattus norvegicus, UniProt P41738); assay: EROD activity in rat hepatoma 5L cells; assay type: cell-based; conditions: 5L cell line, 40 hours
T2 construct: endogenous in cells; host or cells: rat hepatoma 5L cells
T2 sequence (P41738 10-853): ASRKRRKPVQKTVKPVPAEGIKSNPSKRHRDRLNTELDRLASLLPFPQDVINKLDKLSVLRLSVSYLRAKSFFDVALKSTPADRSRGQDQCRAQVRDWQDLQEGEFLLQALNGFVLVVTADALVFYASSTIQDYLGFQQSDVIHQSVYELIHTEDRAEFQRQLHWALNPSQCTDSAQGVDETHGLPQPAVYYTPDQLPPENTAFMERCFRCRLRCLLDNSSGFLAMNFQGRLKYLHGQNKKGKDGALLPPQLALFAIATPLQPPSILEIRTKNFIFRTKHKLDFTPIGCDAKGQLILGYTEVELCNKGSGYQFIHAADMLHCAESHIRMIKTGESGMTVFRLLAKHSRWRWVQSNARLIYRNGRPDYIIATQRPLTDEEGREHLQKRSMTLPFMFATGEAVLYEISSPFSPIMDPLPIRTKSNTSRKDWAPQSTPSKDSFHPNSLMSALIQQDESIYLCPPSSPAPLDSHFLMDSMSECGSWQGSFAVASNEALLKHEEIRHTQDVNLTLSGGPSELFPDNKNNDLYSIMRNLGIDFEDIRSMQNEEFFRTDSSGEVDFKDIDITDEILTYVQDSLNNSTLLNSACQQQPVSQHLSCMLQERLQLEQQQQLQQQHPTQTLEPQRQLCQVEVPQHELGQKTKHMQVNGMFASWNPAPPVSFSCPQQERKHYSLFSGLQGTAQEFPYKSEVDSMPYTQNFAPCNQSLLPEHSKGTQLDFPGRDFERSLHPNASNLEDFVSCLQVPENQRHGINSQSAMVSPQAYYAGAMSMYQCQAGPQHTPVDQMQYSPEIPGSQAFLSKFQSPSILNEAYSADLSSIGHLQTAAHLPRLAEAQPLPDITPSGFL
Method: (§3) We utilized the wild type rat hepatoma cell line, 5L, which harbors the high affinity AHR isoform, and our newly created AHR^d-15 cell line. […] Groups of control mice were given corn oil alone or BNF at the concentration of 120 mg/kg.
as §1, §2

DBA/2J mice (AHR^d) = assay: In vivo hepatic microsomal EROD activity, DBA/2J; set-up: species or system mouse; conditions: oral 120 mg/kg, 48 hours
Method: as §3, §1
Hepatic microsomes were prepared by homogenizing 0.5 g of liver tissue in 5 mL of MENG buffer (25 mM buffer sodium morpholinopropane sulfonate buffer (pH 7.5) containing 0.025% (w/v) NaN3, 1 mM EGTA and 10% (v/v) glycerol). The homogenate was subjected to centrifugation at 10,000×g for 20 minutes, followed by centrifugation of the supernatant for 1 hour at 100,000×g and 4°C. The pellet was dissolved in 15 mM Tris-HCl buffer containing 250 mM sucrose (pH 8.0) and aliquots were stored at −80°C. Protein concentration was determined using the Bicinchoninic Acid Protein Assay Reagent (Pierce Biotechnology, Rockford, IL). […]

[2] = system: AHR (101L-hepatoma cells); assay: Antagonism of DRE-luciferase activation by CH223191; assay type: cell-based, human

Chain of AHR^b isoform (C57BL/6J hepatic cytosol) (P30561 10-805): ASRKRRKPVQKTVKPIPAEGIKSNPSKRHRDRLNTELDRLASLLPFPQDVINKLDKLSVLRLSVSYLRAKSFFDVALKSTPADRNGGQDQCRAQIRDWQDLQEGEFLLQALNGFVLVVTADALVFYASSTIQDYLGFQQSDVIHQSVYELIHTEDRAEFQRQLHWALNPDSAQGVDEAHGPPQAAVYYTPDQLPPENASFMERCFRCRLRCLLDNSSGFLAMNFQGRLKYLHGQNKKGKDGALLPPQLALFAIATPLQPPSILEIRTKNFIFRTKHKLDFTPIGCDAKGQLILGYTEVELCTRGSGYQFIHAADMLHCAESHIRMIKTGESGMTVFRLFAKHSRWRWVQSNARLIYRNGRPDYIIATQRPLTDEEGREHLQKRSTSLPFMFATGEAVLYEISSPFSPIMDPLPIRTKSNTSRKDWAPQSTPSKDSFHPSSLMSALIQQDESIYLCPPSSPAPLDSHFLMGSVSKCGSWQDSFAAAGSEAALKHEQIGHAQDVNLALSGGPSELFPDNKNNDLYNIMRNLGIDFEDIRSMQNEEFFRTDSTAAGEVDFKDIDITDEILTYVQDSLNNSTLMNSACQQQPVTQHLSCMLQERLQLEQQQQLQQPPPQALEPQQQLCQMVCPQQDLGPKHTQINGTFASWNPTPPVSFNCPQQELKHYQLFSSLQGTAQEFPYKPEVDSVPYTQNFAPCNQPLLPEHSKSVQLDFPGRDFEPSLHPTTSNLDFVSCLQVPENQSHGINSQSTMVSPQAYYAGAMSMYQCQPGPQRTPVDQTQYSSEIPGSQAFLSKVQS

## c1ccc2cc3c(ccc4ccccc43)cc2c1 [1,2-Benzanthracene]
[1]
  IC50: 13.7 nM

## O=c1cc(-c2ccccc2)oc2ccc3ccccc3c12 [BNF, β-naphthoflavone]
Murine AHR^d; AHR^d-15 cell line, 40 hours
  EROD response: no response
Murine AHR^d; AHR^d-15 cells, doses as high as 10 µM, 36 hours
  AHR-mediated response (EROD activity): inactive
Rat AHR^b (5L)
  EROD response: strong response
DBA/2J mice (AHR^d)
  hepatic EROD activity: dramatically decreased in vivo activity

## Cc1ccccc1N=Nc1ccc(NC(=O)c2ccnn2C)c(C)c1 [CH223191]
[2]; antagonist 10 µM, titration of SU5416, 4 hours
  inhibition of SU5416-induced DRE activation: only a small amount of inhibition
[2]; titration of antagonist with 1 nM TCDD, 4 hours
  inhibition of TCDD-induced DRE activation: inhibited
[2]; titration of antagonist with 100 nM SU5416, 4 hours
  inhibition of SU5416-induced DRE activation: minimal inhibition
